Where “and” joins values, the source holds several entries; their conditions need not be identical. Identical values can stand only once.
Test: xn = mol fraction of the nth substance listed
Conditions: Fluid (supercritical or subcritical phases), quasistatic thermogram and barogram, x2 = 0.7393

N [ammonia] + O
Conditions	thermal pressure coefficient
330.88 K, Mass density=540.25 kg/m3	7 kPa/K
349.52 K, Mass density=540.25 kg/m3	12 kPa/K
366.71 K, Mass density=540.25 kg/m3	17 kPa/K
397.73 K, Mass density=540.25 kg/m3	32 kPa/K
402.59 K, Mass density=671.23 kg/m3	30 kPa/K
407.37 K, Mass density=649.65 kg/m3	37 kPa/K
407.57 K, Mass density=649.65 kg/m3	37 kPa/K
407.79 K, Mass density=649.65 kg/m3	40 kPa/K
421.43 K, Mass density=540.25 kg/m3	43 kPa/K
446.89 K, Mass density=540.25 kg/m3	58 kPa/K
473.33 K, Mass density=540.25 kg/m3	77 kPa/K
478.28 K, Mass density=671.23 kg/m3	86 kPa/K
485.04 K, Mass density=671.23 kg/m3	86 kPa/K
492.71 K, Mass density=671.23 kg/m3	87 kPa/K
494.07 K, Mass density=540.25 kg/m3	97 kPa/K
498.62 K, Mass density=671.23 kg/m3	97 kPa/K
507.04 K, Mass density=671.23 kg/m3	118 kPa/K
508.36 K, Mass density=671.23 kg/m3	941 kPa/K
509.3 K, Mass density=649.65 kg/m3	106 kPa/K
509.3 K, Mass density=671.23 kg/m3	935 kPa/K
513.52 K, Mass density=671.23 kg/m3	976 kPa/K
514.53 K, Mass density=649.65 kg/m3	119 kPa/K
516.77 K, Mass density=540.25 kg/m3	116 kPa/K
517.23 K, Mass density=540.25 kg/m3	119 kPa/K
519.21 K, Mass density=649.65 kg/m3	137 kPa/K
519.86 K, Mass density=649.65 kg/m3	896 kPa/K
520.05 K, Mass density=649.65 kg/m3	897 kPa/K
520.42 K, Mass density=649.65 kg/m3	899 kPa/K
521.54 K, Mass density=649.65 kg/m3	899 kPa/K
527.01 K, Mass density=649.65 kg/m3	915 kPa/K
527.03 K, Mass density=456.58 kg/m3	125 kPa/K
530.51 K, Mass density=552.58 kg/m3	130 kPa/K
530.67 K, Mass density=594.32 kg/m3	131 kPa/K
530.98 K, Mass density=476.25 kg/m3	129 kPa/K
534.1 K, Mass density=594.32 kg/m3	139 kPa/K
536.84 K, Mass density=540.25 kg/m3	135 kPa/K
537.29 K, Mass density=540.25 kg/m3	135 kPa/K
539.15 K, Mass density=594.32 kg/m3	145 kPa/K
539.88 K, Mass density=552.58 kg/m3	138 kPa/K
540.06 K, Mass density=476.25 kg/m3	137 kPa/K
540.79 K, Mass density=476.25 kg/m3	137 kPa/K
541.46 K, Mass density=594.32 kg/m3	152 kPa/K
541.53 K, Mass density=456.58 kg/m3	139 kPa/K
542.16 K, Mass density=594.32 kg/m3	153 kPa/K
544.61 K, Mass density=594.32 kg/m3	158 kPa/K
545.26 K, Mass density=594.32 kg/m3	161 kPa/K
546.16 K, Mass density=594.32 kg/m3	744 kPa/K
546.26 K, Mass density=594.32 kg/m3	736 kPa/K
548.44 K, Mass density=476.25 kg/m3	146 kPa/K
549.77 K, Mass density=594.32 kg/m3	742 kPa/K
550.79 K, Mass density=552.58 kg/m3	152 kPa/K
551.43 K, Mass density=552.58 kg/m3	154 kPa/K
552.99 K, Mass density=456.58 kg/m3	160 kPa/K
553.25 K, Mass density=456.58 kg/m3	154 kPa/K
553.7 K, Mass density=376.89 kg/m3	161 kPa/K
554.5 K, Mass density=552.58 kg/m3	156 kPa/K
555.04 K, Mass density=552.58 kg/m3	159 kPa/K
556.55 K, Mass density=540.25 kg/m3	159 kPa/K
556.9 K, Mass density=456.58 kg/m3	158 kPa/K
558.82 K, Mass density=552.58 kg/m3	167 kPa/K
559.36 K, Mass density=476.25 kg/m3	160 kPa/K
560.44 K, Mass density=552.58 kg/m3	171 kPa/K
562 K, Mass density=552.58 kg/m3	654 kPa/K
562.66 K, Mass density=540.25 kg/m3	177 kPa/K
563.63 K, Mass density=342.18 kg/m3	162 kPa/K
563.98 K, Mass density=540.25 kg/m3	181 kPa/K
564.69 K, Mass density=540.25 kg/m3	185 kPa/K
565.22 K, Mass density=540.25 kg/m3	186 kPa/K
565.31 K, Mass density=540.25 kg/m3	187 kPa/K
566.19 K, Mass density=540.25 kg/m3	611 kPa/K
566.98 K, Mass density=540.25 kg/m3	606 kPa/K
568.48 K, Mass density=456.58 kg/m3	174 kPa/K
570.03 K, Mass density=476.25 kg/m3	179 kPa/K
570.81 K, Mass density=476.25 kg/m3	182 kPa/K
571.02 K, Mass density=376.89 kg/m3	175 kPa/K
571.35 K, Mass density=476.25 kg/m3	183 kPa/K
571.99 K, Mass density=456.58 kg/m3	187 kPa/K
572.95 K, Mass density=540.25 kg/m3	618 kPa/K
574.99 K, Mass density=476.25 kg/m3	191 kPa/K
575.79 K, Mass density=476.25 kg/m3	191 kPa/K
575.93 K, Mass density=120.03 kg/m3	148 kPa/K
576.8 K, Mass density=147.43 kg/m3	154 kPa/K
578.55 K, Mass density=456.58 kg/m3	197 kPa/K
578.75 K, Mass density=540.25 kg/m3	632 kPa/K
579.5 K, Mass density=476.25 kg/m3	198 kPa/K
579.85 K, Mass density=456.58 kg/m3	204 kPa/K
580.18 K, Mass density=476.25 kg/m3	203 kPa/K and 452 kPa/K
580.65 K, Mass density=476.25 kg/m3	456 kPa/K
580.9 K, Mass density=329 kg/m3	185 kPa/K
581.27 K, Mass density=476.25 kg/m3	457 kPa/K
581.59 K, Mass density=342.18 kg/m3	192 kPa/K
581.68 K, Mass density=320.33 kg/m3	186 kPa/K
581.77 K, Mass density=456.58 kg/m3	198 kPa/K
582.01 K, Mass density=120.03 kg/m3	155 kPa/K
582.45 K, Mass density=308.35 kg/m3	190 kPa/K
582.46 K, Mass density=307.35 kg/m3	190 kPa/K
582.55 K, Mass density=312.91 kg/m3	189 kPa/K
582.99 K, Mass density=540.25 kg/m3	639 kPa/K
583.68 K, Mass density=456.58 kg/m3	203 kPa/K
583.77 K, Mass density=160.07 kg/m3	168 kPa/K
584.72 K, Mass density=456.58 kg/m3	202 kPa/K
584.81 K, Mass density=120.03 kg/m3	155 kPa/K
584.88 K, Mass density=476.25 kg/m3	473 kPa/K
584.95 K, Mass density=456.58 kg/m3	206 kPa/K and 410 kPa/K
585.31 K, Mass density=120.03 kg/m3	154 kPa/K and 128 kPa/K
585.68 K, Mass density=147.43 kg/m3	166 kPa/K
586.08 K, Mass density=120.03 kg/m3	100 kPa/K
586.37 K, Mass density=120.03 kg/m3	96 kPa/K
587.24 K, Mass density=456.58 kg/m3	416 kPa/K
589.66 K, Mass density=305.44 kg/m3	194 kPa/K
590.01 K, Mass density=297.6 kg/m3	191 kPa/K
590.09 K, Mass density=303.47 kg/m3	191 kPa/K
590.18 K, Mass density=342.18 kg/m3	198 kPa/K
590.18 K, Mass density=376.89 kg/m3	201 kPa/K
590.7 K, Mass density=309.95 kg/m3	203 kPa/K
591.04 K, Mass density=308.35 kg/m3	200 kPa/K
591.13 K, Mass density=301.94 kg/m3	196 kPa/K
591.13 K, Mass density=329 kg/m3	194 kPa/K
591.32 K, Mass density=376.89 kg/m3	202 kPa/K
591.47 K, Mass density=160.07 kg/m3	177 kPa/K
591.47 K, Mass density=299.79 kg/m3	190 kPa/K
591.47 K, Mass density=320.33 kg/m3	199 kPa/K
591.73 K, Mass density=376.89 kg/m3	202 kPa/K
592.08 K, Mass density=312.91 kg/m3	191 kPa/K
592.42 K, Mass density=147.43 kg/m3	176 kPa/K
592.68 K, Mass density=307.35 kg/m3	194 kPa/K
592.94 K, Mass density=188.05 kg/m3	184 kPa/K
593.2 K, Mass density=147.43 kg/m3	175 kPa/K
593.54 K, Mass density=311.19 kg/m3	197 kPa/K
593.89 K, Mass density=147.43 kg/m3	148 kPa/K
594.06 K, Mass density=376.89 kg/m3	206 kPa/K
594.14 K, Mass density=147.43 kg/m3	168 kPa/K and 141 kPa/K

From the NIST ThermoML archive (doi:10.1016/j.fluid.2010.01.023)
